The source of these data is publication PMC10987797, “Functional characterization of Capsicum chinense vanillin aminotransferase: Detection of vanillylamine-forming activity from vanillin” (Biochemistry and Biophysics Reports, 2024).

Common to all, as to format: biochemical
Assay [1] has as its target T1, VAMT (vanillin aminotransferase; rVAMT) (Capsicum chinense, UniProt O82521).
T1 construct: full length, N-terminal His6-tag (pET28a) cut off by thrombin; recombinant from E. coli Rosetta2 (DE3)
Kind of assay: HPLC assay of vanillin glucoside formation, Michaelis-Menten fit. The conditions noted are these: 100 mM pyruvate as amino acceptor, 0.1 mM PLP, 50 mM potassium phosphate pH 8.0; standard assay 30 °C. From the text: HPLC assay of vanillin glucoside formation, Michaelis-Menten fit on VAMT (vanillin aminotransferase; rVAMT)

Assay [2] has as its target T1, VAMT (vanillin aminotransferase; rVAMT). The assay is described as follows: HPLC assay of vanillylamine formation, Michaelis-Menten fit. Particulars: 0.1 mM PLP, 50 mM potassium phosphate pH 8.0, standard assay 30 °C, ping-pong. The source says:
HPLC assay of vanillylamine formation, Michaelis-Menten fit on VAMT (vanillin aminotransferase; rVAMT)

The target is the same in assay [3]. The assay is described as follows: HPLC assay of vanillin formation, Michaelis-Menten fit. The conditions noted are these: 0.1 mM PLP, 50 mM potassium phosphate pH 8.0, standard assay 30 °C. The source says: HPLC assay of vanillin formation, Michaelis-Menten fit on VAMT (vanillin aminotransferase; rVAMT)
The target is the same in assay [4]. Kind of assay: HPLC assay of vanillylamine glucoside formation, Michaelis-Menten fit. Particulars: 100 mM GABA as amino donor, 0.1 mM PLP, 50 mM potassium phosphate pH 8.0; standard assay 30 °C. The source says:
HPLC assay of vanillylamine glucoside formation, Michaelis-Menten fit on VAMT (vanillin aminotransferase; rVAMT)

T1 sequence (O82521 whole entry): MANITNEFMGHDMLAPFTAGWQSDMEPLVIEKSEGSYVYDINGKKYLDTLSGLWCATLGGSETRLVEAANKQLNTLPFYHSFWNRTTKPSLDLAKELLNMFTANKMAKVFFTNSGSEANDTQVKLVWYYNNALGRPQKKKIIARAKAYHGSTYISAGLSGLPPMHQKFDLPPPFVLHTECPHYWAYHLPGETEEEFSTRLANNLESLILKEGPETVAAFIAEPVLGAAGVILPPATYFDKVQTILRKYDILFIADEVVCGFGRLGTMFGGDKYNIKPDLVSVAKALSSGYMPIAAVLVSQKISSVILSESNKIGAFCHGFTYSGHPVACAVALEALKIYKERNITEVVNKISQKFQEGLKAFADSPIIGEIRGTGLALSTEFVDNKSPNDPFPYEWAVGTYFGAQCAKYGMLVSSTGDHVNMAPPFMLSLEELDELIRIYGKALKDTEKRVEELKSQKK

For orientation: Km means the substrate concentration at which the rate is half of its maximum. Take `COc1cc(CN)ccc1O[C@@H]1O[C@H](CO)[C@@H](O)[C@H](O)[C@H]1O` [VAG]: the Km in assay [1] came out at 15 ± 4.8 mM.
With `COc1cc(C=O)ccc1O` [V], in assay [2] (100 mM GABA as amino donor), the Km came to 0.48 ± 0.049 mM.
For `CC(=O)C(=O)O` [Na pyruvate], in assay [3] (5 mM vanillylamine as amino donor), the Km worked out at 5.4 ± 0.34 mM.
For the molecule `COc1cc(C=O)ccc1O[C@@H]1O[C@H](CO)[C@@H](O)[C@H](O)[C@H]1O` [VG], the Km in assay [4] is 3.3 ± 0.56 mM.
Take `NCCCC(=O)O` [GABA]: the Km in assay [2] (5 mM vanillin as amino acceptor) came out at 36 ± 2.1 mM.
Take `COc1cc(CN)ccc1O` [VA]: the Km in assay [3] (100 mM pyruvate as amino acceptor) stood at 0.25 ± 0.037 mM.
